# Test results as given in patent EP3949965A1 (Consejo Superior de Investigaciones Cientificas, priority 2020, dated 2022).
# How the values were obtained:
# Vero-E6 cells = conditions: African green monkey
# in vitro [1] = conditions: African green monkey
# in vitro [2] = conditions: human
structure (smiles),measurement,setting,value
"O=c1[nH]c2ccccc2n1CCCN1CCC(n2c(=O)[nH]c3cc(Cl)ccc32)CC1 [Domperidone, domperidone]",HIGHEST NONTOXIC CONCENTRATION (MTT),Vero-E6 cells,12.5
same,CC50,in vitro [1],25 µM
same,CC50 at 72 h,in vitro [2],4 µM
